Assay results published in publication doi:10.1101/2025.10.06.680748v1 (bioRxiv, 2025).

target: T1, Fibroblast Activation Protein Alpha (FAP) (Homo sapiens, UniProt Q12884); assay: FAP substrate kinetics assay with naïve substrate library; type: biochemical; settings: from the observed C-terminal product
T1 sequence (Q12884 27-760 limits assumed): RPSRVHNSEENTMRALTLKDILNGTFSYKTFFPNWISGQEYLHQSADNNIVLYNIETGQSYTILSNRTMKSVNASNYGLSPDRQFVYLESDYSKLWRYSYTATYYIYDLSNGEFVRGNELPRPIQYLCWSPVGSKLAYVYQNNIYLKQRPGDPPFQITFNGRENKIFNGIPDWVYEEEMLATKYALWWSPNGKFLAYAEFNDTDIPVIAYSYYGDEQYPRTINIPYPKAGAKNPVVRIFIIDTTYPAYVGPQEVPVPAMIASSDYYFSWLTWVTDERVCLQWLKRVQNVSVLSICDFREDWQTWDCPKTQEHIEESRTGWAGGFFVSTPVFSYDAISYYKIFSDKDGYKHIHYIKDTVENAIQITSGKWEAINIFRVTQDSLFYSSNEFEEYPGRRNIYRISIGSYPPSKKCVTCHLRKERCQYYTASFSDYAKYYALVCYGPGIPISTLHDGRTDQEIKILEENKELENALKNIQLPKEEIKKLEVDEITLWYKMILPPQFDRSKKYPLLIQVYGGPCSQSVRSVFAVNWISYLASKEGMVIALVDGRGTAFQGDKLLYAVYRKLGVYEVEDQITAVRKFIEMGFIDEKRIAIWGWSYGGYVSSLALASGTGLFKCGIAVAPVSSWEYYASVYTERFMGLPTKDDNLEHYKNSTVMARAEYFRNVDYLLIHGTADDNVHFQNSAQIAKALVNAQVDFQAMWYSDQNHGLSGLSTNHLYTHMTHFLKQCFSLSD

Sequence | Dipeptidyl? (substrate product pair cleaved by FAP as dipeptidyl exopeptidase)
GSFHVPETHSWLVPR [SL11C_008744] | No
GSNNGQFNMVPLVPR [SL11C_037297] | Yes
GPGVLSEKHAGIEGR [SL11B_022414] | Yes
GPIMPATVSGGIEGR [SL11B_020678] | Yes
